From ChEMBL document CHEMBL1201862, “PubChem BioAssay data set” (2004)
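Five concentrations, 48 hours, 96-well plates. GI50: concentration for 50% inhibition of growth.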 Calls of active or inactive are those of the source. Cut-off read from the data, not from the text of the source: active = GI50 up to about 1.1 µM and inactive = higher.

Tests used:
Experiment in all cases: DTP human tumour cell line panel, 48 h
786-0 = test system: 786-0
A498 = test system: A498
A549 = test system: A549
ACHN = test system: ACHN
CAKI-1 = test system: CAKI-1
CCRF-CEM = test system: CCRF-CEM
DLD-1 = test system: DLD-1
DMS-114 = test system: DMS-114
DMS-273 = test system: DMS-273
EKVX = test system: EKVX
HCC 2998 = test system: HCC 2998
HCT-116 = test system: HCT-116
HCT-15 = test system: HCT-15
HL-60 = test system: HL-60
HOP-92 = test system: HOP-92
HT-29 = test system: HT-29
IGROV-1 = test system: IGROV-1
K562 = test system: K562
KM-20L2 = test system: KM-20L2
LOX IMVI = test system: LOX IMVI
LXFL 529 = test system: LXFL 529
M14 = test system: M14
M19-MEL = test system: M19-MEL
MOLT-4 = test system: MOLT-4
Malme-3M = test system: Malme-3M
NCI-H226 = test system: NCI-H226
NCI-H23 = test system: NCI-H23
NCI-H460 = test system: NCI-H460
NCI-H522 = test system: NCI-H522
OVCAR-3 = test system: OVCAR-3
OVCAR-4 = test system: OVCAR-4
OVCAR-5 = test system: OVCAR-5
OVCAR-8 = test system: OVCAR-8
RPMI-8226 = test system: RPMI-8226
RXF 393 = test system: RXF 393
RXF 631 = test system: RXF 631
SF-268 = test system: SF-268
SF-295 = test system: SF-295
SF-539 = test system: SF-539
SK-MEL-28 = test system: SK-MEL-28
SK-MEL-2 = test system: SK-MEL-2
SK-MEL-5 = test system: SK-MEL-5
SN12C = test system: SN12C
SNB-19 = test system: SNB-19
SNB-75 = test system: SNB-75
SNB-78 = test system: SNB-78
SR = test system: SR
SW-620 = test system: SW-620
TK-10 = test system: TK-10
U-251 = test system: U-251
UACC-257 = test system: UACC-257
UACC-62 = test system: UACC-62
UO-31 = test system: UO-31
XF498 = test system: XF498
BT-549 = test system: BT-549
COLO 205 = test system: COLO 205
DU-145 = test system: DU-145
HOP-18 = test system: HOP-18
HOP-62 = test system: HOP-62
Hs-578T = test system: Hs-578T
KM12 = test system: KM12
MCF7 = test system: MCF7
MDA-MB-231 = test system: MDA-MB-231
MDA-MB-435 = test system: MDA-MB-435
MDA-N = test system: MDA-N
NCI/ADR-RES = test system: NCI/ADR-RES
PC-3 = test system: PC-3
SK-OV-3 = test system: SK-OV-3
T47D = test system: T47D

With `O=C(CC1C(=O)Nc2ccccc2S1(=O)=O)Nc1cccc(Cl)c1` (configuration not stated) as the compound, how does the GI50 (786-0) read?
The GI50 was 14.1 µM (inactive).

And the GI50 (A498)?
Its GI50 is 18.9 µM (inactive).

And the GI50 (A549)?
The GI50 was 20 µM (inactive).

And the GI50 (ACHN)?
Its GI50 is 16.9 µM (inactive).

And the GI50 (CAKI-1)?
Its GI50 is 21.1 µM (inactive).

And the GI50 (CCRF-CEM)?
The GI50 was 22.3 µM (inactive).

And the GI50 (DLD-1)?
Its GI50 is 17.5 µM (inactive).

And the GI50 (DMS-114)?
Its GI50 is 16.1 µM (inactive).

What about the GI50 (DMS-273) of the same compound?
The GI50 was 14.5 µM (inactive).

What about the GI50 (EKVX) of the same compound?
Its GI50 is 17.2 µM (inactive).

What about the GI50 (HCC 2998) of the same compound?
Its GI50 is 18.2 µM (inactive).

And the GI50 (HCT-116)?
The GI50 was 18.2 µM (inactive).

What about the GI50 (HCT-15) of the same compound?
The GI50 was 15.5 µM.

What about the GI50 (HL-60) of the same compound?
Its GI50 is 18.5 µM (inactive).

What about the GI50 (HOP-92) of the same compound?
Its GI50 is 16.1 µM (inactive).

And the GI50 (HT-29)?
Its GI50 is 17.5 µM (inactive).

And the GI50 (IGROV-1)?
The GI50 was 18.9 µM (inactive).

And the GI50 (K562)?
The GI50 was 17.8 µM (inactive).

And the GI50 (KM-20L2)?
Its GI50 is 21.1 µM (inactive).

And the GI50 (LOX IMVI)?
Its GI50 is 15.2 µM (inactive).

What about the GI50 (LXFL 529) of the same compound?
The GI50 was 17.2 µM (inactive).

What about the GI50 (M14) of the same compound?
Its GI50 is 18.8 µM (inactive).

And the GI50 (M19-MEL)?
Its GI50 is 19.1 µM (inactive).

What about the GI50 (MOLT-4) of the same compound?
Its GI50 is 11.9 µM (inactive).

And the GI50 (Malme-3M)?
Its GI50 is 23.7 µM (inactive).

And the GI50 (NCI-H226)?
Its GI50 is 17.3 µM (inactive).

And the GI50 (NCI-H23)?
The GI50 was 18.9 µM (inactive).

And the GI50 (NCI-H460)?
Its GI50 is 16.7 µM (inactive).

What about the GI50 (NCI-H522) of the same compound?
Its GI50 is 16.9 µM (inactive).

And the GI50 (OVCAR-3)?
Its GI50 is 15.6 µM (inactive).

And the GI50 (OVCAR-4)?
The GI50 was 20.1 µM (inactive).

And the GI50 (OVCAR-5)?
The GI50 was 23.2 µM (inactive).

What about the GI50 (OVCAR-8) of the same compound?
The GI50 was 17.8 µM (inactive).

And the GI50 (RPMI-8226)?
Its GI50 is 3.93 µM (inactive).

And the GI50 (RXF 393)?
The GI50 was 16.3 µM (inactive).

What about the GI50 (RXF 631) of the same compound?
Its GI50 is 19.9 µM (inactive).

What about the GI50 (SF-268) of the same compound?
Its GI50 is 16.2 µM (inactive).

And the GI50 (SF-295)?
The GI50 was 24.7 µM (inactive).

What about the GI50 (SF-539) of the same compound?
Its GI50 is 10.7 µM (inactive).

What about the GI50 (SK-MEL-28) of the same compound?
Its GI50 is 20.1 µM (inactive).

What about the GI50 (SK-MEL-2) of the same compound?
The GI50 was 27.1 µM (inactive).

What about the GI50 (SK-MEL-5) of the same compound?
Its GI50 is 19.1 µM (inactive).

And the GI50 (SN12C)?
The GI50 was 15.7 µM (inactive).

What about the GI50 (SNB-19) of the same compound?
The GI50 was 19.4 µM (inactive).

And the GI50 (SNB-75)?
Its GI50 is 16.8 µM (inactive).

And the GI50 (SNB-78)?
Its GI50 is 59.7 µM (inactive).

What about the GI50 (SR) of the same compound?
The GI50 was 18.2 µM (inactive).

What about the GI50 (SW-620) of the same compound?
Its GI50 is 17.7 µM (inactive).

What about the GI50 (TK-10) of the same compound?
Its GI50 is 22.3 µM (inactive).

What about the GI50 (U-251) of the same compound?
The GI50 was 13.6 µM (inactive).

And the GI50 (UACC-257)?
Its GI50 is 19.8 µM (inactive).

What about the GI50 (UACC-62) of the same compound?
Its GI50 is 15.1 µM (inactive).

And the GI50 (UO-31)?
The GI50 was 16.6 µM (inactive).

And the GI50 (XF498)?
Its GI50 is 21.3 µM (inactive).

Which results are given for `O=C1/C(=C/c2ccccc2)CN(C(=O)/C=C/c2ccccc2)C/C1=C\c1ccccc1`?
GI50 (786-0): 4.09 µM (inactive); GI50 (A498): 33.3 µM (inactive); GI50 (A549): 11.1 µM (inactive); GI50 (ACHN): 14.2 µM (inactive); GI50 (BT-549): 2.26 µM (inactive); GI50 (CAKI-1): 23.7 µM (inactive); GI50 (CCRF-CEM): 2.85 µM (inactive); GI50 (COLO 205): 4.92 µM (inactive); GI50 (DLD-1): 4.14 µM (inactive); GI50 (DMS-273): 4.74 µM (inactive); GI50 (DU-145): 18.6 µM (inactive); GI50 (EKVX): 24.5 µM (inactive); GI50 (HCC 2998): 3.55 µM (inactive); GI50 (HCT-116): 0.764 µM (active); GI50 (HCT-15): 6.17 µM; GI50 (HL-60): 4.44 µM (inactive); GI50 (HOP-18): 33.7 µM (inactive); GI50 (HOP-62): 23.7 µM (inactive); GI50 (HOP-92): 25.9 µM (inactive); GI50 (HT-29): 3.07 µM (inactive); GI50 (Hs-578T): 4.27 µM (inactive); GI50 (IGROV-1): 6.95 µM (inactive); GI50 (K562): 2.98 µM (inactive); GI50 (KM-20L2): 12.8 µM (inactive); GI50 (KM12): 4.17 µM (inactive); GI50 (LOX IMVI): 2.55 µM (inactive); GI50 (LXFL 529): 8.05 µM (inactive); GI50 (M14): 3.63 µM (inactive); GI50 (M19-MEL): 5.22 µM (inactive); GI50 (MCF7): 1.75 µM (inactive); GI50 (MDA-MB-231): 3.18 µM (inactive); GI50 (MDA-MB-435): 1.93 µM (inactive); GI50 (MDA-N): 1.87 µM (inactive); GI50 (MOLT-4): 3.53 µM (inactive); GI50 (Malme-3M): 16.1 µM (inactive); GI50 (NCI-H226): 18.8 µM (inactive); GI50 (NCI-H23): 12.4 µM (inactive); GI50 (NCI-H460): 11.5 µM (inactive); GI50 (NCI-H522): 8.99 µM (inactive); GI50 (NCI/ADR-RES): 1.86 µM (inactive); GI50 (OVCAR-3): 7.13 µM (inactive); GI50 (OVCAR-4): 6.85 µM (inactive); GI50 (OVCAR-5): 17.6 µM (inactive); GI50 (OVCAR-8): 4.88 µM (inactive); GI50 (PC-3): 2.03 µM (inactive); GI50 (RPMI-8226): 1.07 µM (active); GI50 (RXF 393): 15.6 µM (inactive); GI50 (RXF 631): 27.1 µM (inactive); GI50 (SF-268): 11.2 µM (inactive); GI50 (SF-295): 4.79 µM (inactive); GI50 (SF-539): 9.75 µM (inactive); GI50 (SK-MEL-28): 7.62 µM (inactive); GI50 (SK-MEL-2): 21.4 µM (inactive); GI50 (SK-MEL-5): 8.38 µM (inactive); GI50 (SK-OV-3): 27.7 µM (inactive); GI50 (SN12C): 5.43 µM (inactive); GI50 (SNB-19): 8.15 µM (inactive); GI50 (SNB-75): 13.5 µM (inactive); GI50 (SNB-78): 22 µM (inactive); GI50 (SR): 1.3 µM (inactive); GI50 (SW-620): 2.39 µM (inactive); GI50 (T47D): 4.43 µM (inactive); GI50 (TK-10): 16.1 µM (inactive); GI50 (U-251): 3.59 µM (inactive); GI50 (UACC-257): 12.7 µM (inactive); GI50 (UACC-62): 5.69 µM (inactive); GI50 (UO-31): 12.4 µM (inactive); GI50 (XF498): 18.6 µM (inactive)
